Assay results published in US20240246931A1, “COMPOUNDS AS PD1/PD-L1 INHIBITORS AND METHODS THEREOF” (JUBILANT PRODEL LLC, priority 2021, published 2024).

How the values were obtained:
[1] = target: T1, PD-1/PD-L1 interaction (Homo sapiens, UniProt Q9NZQ7); assay: PD-1/PD-L1 HTRF binding assay (CisBio kit); details: HTRF PD1/PD-L1 inhibition assay
T1 construct: purchased CisBio 63ADK000CPAPEG
Outline: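 HTRF kit assay: compound was preincubated 15 min with tagged PD-L1 and PD-1 proteins, then Eu-cryptate and XL665 anti-tag antibodies were added for 1 h at room temperature. Readout was the 665/620 nm ratio ×10^4. IC50 was binned as A <100 nM, B 100–500 nM, C >500 nM.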

[2] = Metabolic stability in human liver microsomes; assay type: in vitro ADME; details: human liver microsomes 1.0 mg/mL, compound 1 μM, NADPH, first number of HLM/MLM cell
From the text: (§1) Metabolic Stability in Liver Microsomes
(§2) The purpose of this experiment is to measure the metabolic half-life of NCEs in sub-cellular fractions such as human liver microsomes (HLM) or mouse liver microsomes (MLM). This provides an in vitro means to calculate intrinsic hepatic clearance, and to support the prediction of human pharmacokinetics. This approach has been successfully utilized at early phase of drug discovery projects, to provide SAR input for reducing metabolic instability and for predicting in vivo hepatic clearance.
(§3) Procedure: Potassium phosphate buffer (66.7 mM, pH 7.4) containing liver microsomes (mouse and human) (1.0 mg/mL) was pre-incubated separately with compound (1 μM) and positive control (verapamil, 1 μM) in a 37° C. water bath for 5 min. The reactions were initiated by adding 20 μL of 10 mM NADPH. Reactions without NADPH (0 and 30 min) were also incubated to rule out non-NADPH metabolism or chemical instability in the incubation buffer. All reactions were terminated using 200 μL of ice-cold acetonitrile containing internal standard at 0, 5, 15 and 30 min. The vials were centrifuged at 3000 rpm for 15 min. The supernatants thus obtained were analyzed on LC-MS/MS to monitor the disappearance of test compound.

[3] = Metabolic stability in mouse liver microsomes; assay type: in vitro ADME; details: mouse liver microsomes 1.0 mg/mL, compound 1 μM, NADPH, second number of HLM/MLM cell
From the text: as §1, §2, §3

T1 sequence (Q9NZQ7 19-238 limits assumed): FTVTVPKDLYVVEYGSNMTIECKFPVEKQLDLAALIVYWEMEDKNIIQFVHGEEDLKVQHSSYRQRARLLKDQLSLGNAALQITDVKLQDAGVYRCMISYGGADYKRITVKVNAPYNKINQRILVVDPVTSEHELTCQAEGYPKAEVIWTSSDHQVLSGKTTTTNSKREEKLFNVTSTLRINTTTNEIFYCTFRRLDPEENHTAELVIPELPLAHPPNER

Compound	IC50 [1]	HLM % remaining @ 30 min [2]	MLM % remaining @ 30 min [3]
Cc1c(COc2cc(OCCCF)c(CN3CCCC[C@H]3CO)c3c2CCC3)cccc1-c1ccccc1 [Example 32, (S)-(1-((5-(3-fluoropropoxy)-7-((2-methyl-[1,1′-biphenyl]-3-yl)methoxy)-2,3-dihydro-1H-inden-4-yl)methyl)piperidin-2-yl)methanol]	< 100 nM	81%	84%
Cc1c(COc2cc(OCc3cccc(C#N)c3)c(CN3CCCC4CC43CO)c3c2CCC3)cccc1-c1ccccc1 (stereo not drawn) [Example 34, 3-(((4-((1-(hydroxymethyl)-2-azabicyclo[4.1.0]heptan-2-yl)methyl)-7-((2-methyl-[1,1′-biphenyl]-3-yl)methoxy)-2,3-dihydro-1H-inden-5-yl)oxy)methyl)benzonitrile]	< 100 nM	8%	5%
Cc1c(COc2cc(OCc3cncc(C#N)c3)c(CN3CCCC4CC43CO)c3c2CCC3)cccc1-c1ccccc1 (stereo not drawn) [Example 35, 5-(((4-((1-(hydroxymethyl)-2-azabicyclo[4.1.0]heptan-2-yl)methyl)-7-((2-methyl-[1,1′-biphenyl]-3-yl)methoxy)-2,3-dihydro-1H-inden-5-yl)oxy)methyl)nicotinonitrile]	< 100 nM	3/3%	3/3%
Cc1c(COc2cc(OCc3cncc(C(N)=O)c3)c(CN3CCCC[C@H]3CO)c3c2CCC3)cccc1-c1ccccc1 [Example 37, (S)-5-(((4-((2-(hydroxymethyl)piperidin-1-yl)methyl)-7-((2-methyl-[1,1′-biphenyl]-3-yl)methoxy)-2,3-dihydro-1H-inden-5-yl)oxy)methyl)nicotinamide]	< 100 nM	86%	88%
Cc1c(COc2cc(OCc3cccc(C(N)=O)c3)c(CN3CCC[C@H]3CO)c3c2CCC3)cccc1-c1ccccc1 [Example 38, (S)-3-(((4-((2-(hydroxymethyl)pyrrolidin-1-yl)methyl)-7-((2-methyl-[1,1′-biphenyl]-3-yl)methoxy)-2,3-dihydro-1H-inden-5-yl)oxy)methyl)benzamide]	< 100 nM	78%	84%
Cc1c(COc2cc(OCc3cc(C#N)c[n+]([O-])c3)c(CN3CCC[C@H]3CO)c3c2CCC3)cccc1-c1ccccc1 [Example 44, (S)-3-cyano-5-(((4-((2-(hydroxymethyl)pyrrolidin-1-yl)methyl)-7-((2-methyl-[1,1′-biphenyl]-3-yl)methoxy)-2,3-dihydro-1H-inden-5-yl)oxy)methyl)pyridine 1-oxide]	< 100 nM	33%	15%

More lines, now with the values ahead:

IC50 [1]	HLM % remaining @ 30 min [2]	MLM % remaining @ 30 min [3]	Compound
< 100 nM	74%	82%	Cc1c(COc2cc(OCCF)c(CN3CCC[C@H]3CO)c3c2CCC3)cccc1-c1ccccc1 [Example 28, (S)-(1-((5-(2-fluoroethoxy)-7-((2-methyl-[1,1′-biphenyl]-3-yl)methoxy)-2,3-dihydro-1H-inden-4-yl)methyl)pyrrolidin-2-yl)methanol]
< 100 nM	56%	71%	N#Cc1c(COc2cc(OCCF)c(CN3CCCC[C@H]3CO)c3c2CCC3)cccc1-c1ccccc1 [Example 29, (S)-3-(((6-(2-fluoroethoxy)-7-((2-(hydroxymethyl)piperidin-1-yl)methyl)-2,3-dihydro-1H-inden-4-yl)oxy)methyl)-[1,1′-biphenyl]-2-carbonitrile]
< 100 nM	57%	74%	Cc1c(COc2cc(OCCCCCF)c(CN3CCCC[C@H]3CO)c3c2CCC3)cccc1-c1ccccc1 [Example 30, (S)-(1-((5-((5-fluoropentyl)oxy)-7-((2-methyl-[1,1′-biphenyl]-3-yl)methoxy)-2,3-dihydro-1H-inden-4-yl)methyl)piperidin-2-yl)methanol]
